According to patent US20230373934A1, “ANDROGEN RECEPTOR MODULATORS AND METHODS FOR THEIR USE” (ESSA Pharma, Inc., priority 2022, published 2023):

Experiments:
[1] = Microsomal stability assay, liver microsome half-life (mouse); assay type: in vitro ADME; conditions: pH 7.4; mouse liver microsomes 0.5 mg/mL + NADPH, 1 μM compound, 37° C; read-out: Liver microsome + NADPH T½ (min) Mouse
Source text: (§1) Microsomal Stability Assay: Microsomal stability assay is a widely used in vitro model to characterize the metabolic conversion by phase I enzymes, such as cytochrome P450 (CYP) enzymes. Since metabolism is known to be highly variable in different species, microsomal stability assay is commonly run in multiple species. Metabolic stability of testing compound can be evaluated using human, rat, mouse, or other animal liver or intestine microsomes to predict intrinsic clearance.
(§2) The assay was carried out in 96-well microtiter plates at 37° C. Reaction mixtures (25 μL) contained a final concentration of 1 μM test compound, 0.5 mg/mL liver microsomes protein, and 1 mM NADPH and/or 1 mM UDPGA (with alamethicin) in 100 mM potassium phosphate, pH 7.4 buffer with 3 mM MgCl2. The incubation was done with N=1, but duplicate incubation at each time point can be prepared if necessary. At each of the time points (for example, 0, 15, 30, and 60 minutes), 150 μL of quench solution (100% acetonitrile with 0.1% formic acid) with internal standard was transferred to each well. Besides the zero minute controls, mixtures containing the same components except the NADPH can also be prepared as the negative control. Verapamil was included as a positive control to verify assay performance. Plates were sealed, vortexed, and centrifuged at 4° C. for 15 minutes at 4000 rpm. The supernatant is transferred to fresh plates for LC/MS/MS analysis.
(§3) Summarized conditions: [Compound]=1 μM, [LM]=0.5 mg/mL, [NADPH]=1 mM and/or [UDPGA]=1 mM, Buffer=100 mM Potassium Phosphate, pH 7.4 with 3 mM MgCl2, Time=0, 15, 30, and 60 min, and Temperature=37° C.
(§4) All samples were analyzed on LC/MS/MS using an AB Sciex API 4000 instrument, coupled to a Shimadzu LC-20AD LC Pump system. Analytical samples were separated using a Waters Atlantis T3 dC18 reverse phase HPLC column (20 mm×2.1 mm) at a flow rate of 0.5 mL/min. The mobile phase consisted of 0.1% formic acid in water (solvent A) and 0.1% formic acid in 100% acetonitrile (solvent B).
(§5) The extent of metabolism is calculated as the disappearance of the test compound, compared to the 0-min time incubation. Initial rates are calculated for the compound concentration and used to determine half-life (t1/2).

[2] = Microsomal stability assay, liver microsome half-life (human); assay type: in vitro ADME; conditions: pH 7.4; human liver microsomes 0.5 mg/mL + NADPH, 1 μM compound, 37° C; read-out: Liver microsome + NADPH T½ (min) Human
[3] = Microsomal stability assay, liver microsome half-life (rat); assay type: in vitro ADME; conditions: pH 7.4; rat liver microsomes 0.5 mg/mL + NADPH, 1 μM compound, 37° C; read-out: Liver microsome + NADPH T½ (min) Rat
Source text: as §1, §2, §3, §4, §5

[4] = Microsomal stability assay, liver microsome half-life (monkey); assay type: in vitro ADME; conditions: pH 7.4; monkey liver microsomes 0.5 mg/mL + NADPH, 1 μM compound, 37° C; read-out: Liver microsome + NADPH T½ (min) Monkey
Source text: as §1, §2, §3, §4, §5

androgen receptor (AR) = target: T1, androgen receptor (AR) (Homo sapiens, UniProt P10275); experiment: Androgen-induced PSA-luciferase assay, Luciferase Assay B (cells stably expressing ARR2PB or PSA-firefly luciferase reporter, 384-well); assay type: cell-based; conditions: Luciferase Assay B (Compounds A186-A219 and A221-A245); stable luciferase reporter cells, 1 h pretreatment, R1881 24 h, serum-free; read-out: PSA-Luc IC50 Range
T1 sequence (P10275 1-920 T878A): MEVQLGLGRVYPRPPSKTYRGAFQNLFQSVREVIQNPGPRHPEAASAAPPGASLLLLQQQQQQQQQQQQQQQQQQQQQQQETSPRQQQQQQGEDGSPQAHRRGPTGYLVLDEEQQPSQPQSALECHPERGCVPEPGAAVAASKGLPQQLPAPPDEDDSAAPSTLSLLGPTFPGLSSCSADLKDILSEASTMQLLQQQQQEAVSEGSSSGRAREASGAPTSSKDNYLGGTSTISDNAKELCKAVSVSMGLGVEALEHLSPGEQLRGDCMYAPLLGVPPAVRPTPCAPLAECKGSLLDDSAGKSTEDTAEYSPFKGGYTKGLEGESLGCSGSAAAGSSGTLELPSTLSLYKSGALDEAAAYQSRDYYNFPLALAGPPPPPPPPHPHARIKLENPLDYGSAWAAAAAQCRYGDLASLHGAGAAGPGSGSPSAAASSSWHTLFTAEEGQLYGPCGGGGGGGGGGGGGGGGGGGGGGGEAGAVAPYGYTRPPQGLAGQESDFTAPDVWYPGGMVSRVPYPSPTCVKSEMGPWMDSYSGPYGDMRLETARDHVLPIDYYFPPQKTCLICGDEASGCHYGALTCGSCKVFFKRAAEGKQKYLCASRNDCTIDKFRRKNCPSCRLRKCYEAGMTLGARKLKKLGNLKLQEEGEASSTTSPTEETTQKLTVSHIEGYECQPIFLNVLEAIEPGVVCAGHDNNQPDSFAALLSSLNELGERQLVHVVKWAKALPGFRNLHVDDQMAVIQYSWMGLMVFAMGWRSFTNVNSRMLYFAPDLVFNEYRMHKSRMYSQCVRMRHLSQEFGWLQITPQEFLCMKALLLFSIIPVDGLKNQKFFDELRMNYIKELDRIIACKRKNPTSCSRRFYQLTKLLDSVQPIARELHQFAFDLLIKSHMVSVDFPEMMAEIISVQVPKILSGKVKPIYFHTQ

[5] = Microsomal stability assay, liver microsome half-life (dog); assay type: in vitro ADME; conditions: pH 7.4; dog liver microsomes 0.5 mg/mL + NADPH, 1 μM compound, 37° C; read-out: Liver microsome + NADPH T½ (min) Dog
Source text: as §1, §2, §3, §4, §5

SMILES | half-life at 1 μM [1] [min] | half-life at 1 μM [2] [min] | half-life at 1 μM [3] [min] | half-life at 1 μM [4] [min] | IC50 (androgen receptor (AR)) [nM] | half-life at 1 μM [5] [min]
CS(=O)(=O)Nc1cnc2cc(-c3ccc(Oc4cc(C#N)c(OC5CC5)c(C(F)(F)F)c4)cc3)ccc2n1 [Compound A190] | > 120 | > 120 | > 120 | > 120 | 500 to 2000 | > 120
CS(=O)(=O)Nc1nc2ccc(-c3ccc(Oc4cc(Cl)c(OC5CC5)c(C#N)c4)cc3)cc2cc1F [Compound A191] | > 120 | > 120 | > 120 | > 120 | 500 to 2000 | > 120
CS(=O)(=O)Nc1cnc2cc(-c3ccc(Oc4cc(C#N)c(OC5CC5)c(C#N)c4)cc3)ccc2n1 [Compound A198] | > 120 | > 120 | > 120 | > 120 | < 500 | > 120
CS(=O)(=O)Nc1cnc2cc(-c3ccc(N(CC(F)(F)F)c4cc(F)c(OC5CC5)c(C#N)c4)cc3)ccc2n1 [Compound A199] | > 120 | > 120 | > 120 | > 120 | < 500 | > 120
CS(=O)(=O)Nc1nccc(COc2ccc(N(CC(F)(F)F)c3cc(Cl)c(OC4CC4)c(C#N)c3)cc2)n1 [Compound A202] | > 120 | > 120 | > 120 | > 120 | < 500 | > 120
CS(=O)(=O)Nc1cnc2cc(-c3ccc(N(CC(F)(F)F)c4cnc(OC5CC5)c(C#N)c4)cc3)ccc2n1 [Compound A203, N-(6-(4-((5-cyano-6-cyclopropoxypyridin-3-yl)(2,2,2-trifluoroethyl)amino)phenyl)quinoxalin-2-yl)methanesulfonamide] | > 120 | > 120 | > 120 | > 120 | < 500 | > 120
N#Cc1cc(Oc2ccc(-c3ccc4nc(N5CC(O)C5)cnc4c3)cc2)cc(Cl)c1OC1CC1 [Compound A205] | > 120 | > 120 | > 120 | > 120 | 500 to 2000 | > 120
CN(c1ccc(-c2ccc3nc(NS(C)(=O)=O)cnc3c2)cc1)c1cc(F)c(OC2CC2)c(C#N)c1 [Compound A208] | > 120 | > 120 | > 120 | > 120 | < 500 | > 120
